Experimental data taken from US20250215039A1, “NUCLEOSIDES FOR TREATING CANCER” (PRIMEFOUR THERAPEUTICS, INC., priority 2022, published 2025).
Where two headings read alike, the source gives them in different places.

Tested on: cancer cell lines
Test: Cancer cell proliferation activity (CellTiterGlo, 72 h)
Type: cell-based
Conditions: 72 h, 72 h, read-out: IC50
How it was run: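 Cells seeded overnight at 37 °C, then dosed with compound at 0.1% final DMSO and incubated 72 h at 37 °C (5% or 10% CO2 by medium).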

O=c1[nH]c(=O)n([C@H]2C[C@H](O)[C@](CO)(CF)O2)cc1F [Cpd. No. 112, 5-fluoro-1-((2R,4S,5R)-5-(fluoromethyl)-4-hydroxy-5-(hydroxymethyl)tetrahydrofuran-2-yl)pyrimidine-2,4(1H,3H)-dione]
IC50 (5637 cell line (bladder)): 2.89 µM | IC50 (CLS439 cell line (bladder)): > 50 µM | IC50 (HS729 cell line (muscle)): > 50 µM | IC50 (HSS78T cell line): > 50 µM | IC50 (JAR cell line (placenta)): > 50 µM | IC50 (SKMELS cell line): > 50 µM | IC50 (Homo sapiens, 22Rv1, 72 h, 22RV1 cell line (prostate)): 1.5 µM | IC50 (Homo sapiens, 786-0, 72 h, 786O cell line (kidney)): > 50 µM | IC50 (Homo sapiens, A204, 72 h, A204 cell line (muscle)): 5.28 µM | IC50 (Homo sapiens, A549, 72 h, A549 cell line): 2.52 µM | IC50 (Homo sapiens, A673, 72 h, A673 cell line (bone)): 5.33 µM | IC50 (Homo sapiens, A2780, 72 h, A2780 cell line (ovary)): > 50 µM | IC50 (Homo sapiens, A-375, 72 h, A375 cell line (skin)): 6.3 µM | IC50 (Homo sapiens, A-431, 72 h, A431 cell line (skin)): 0.34 µM | IC50 (Homo sapiens, ACHN, ACHN cell line (kidney)): 1.51 µM | IC50 (Homo sapiens, ASPC1, 72 h, ASPC1 cell line (pancreas)): 0.58 µM | IC50 (Homo sapiens, BT-20, 72 h, BT20 cell line (breast)): > 50 µM | IC50 (Homo sapiens, BXPC-3, 72 h, BXPC3 cell line (pancreas)): 0.08 µM | IC50 (Homo sapiens, C-33-A, C33A cell line (cervical)): 3.92 µM | IC50 (Homo sapiens, CAKI-1, 72 h, CAKI1 cell line (kidney)): > 50 µM | IC50 (Homo sapiens, COLO 205, 72 h, COLO205 cell line (colon)): 1.83 µM | IC50 (Homo sapiens, COLO-678, 72 h, COLO678 cell line (colon)): > 50 µM | IC50 (Homo sapiens, Ca-Ski, CASKI cell line (cervical)): 7.06 µM | IC50 (Homo sapiens, Caco-2, 72 h, CACO2 cell line (colon)): > 50 µM | IC50 (Homo sapiens, Calu-6, 72 h, CALU6 cell line (lung)): 4.68 µM | IC50 (Homo sapiens, DLD-1, 72 h, DLD1 cell line (colon)): > 50 µM | IC50 (Homo sapiens, DU-145, 72 h, DU145 cell line (prostate)): 3.15 µM | IC50 (Homo sapiens, EFO-21, 72 h, EFO21 cell line (ovary)): 16.9 µM | IC50 (Homo sapiens, EJ-28, 72 h, EJ28 cell line (bladder)): 5.41 µM | IC50 (Homo sapiens, Granta-519, 72 h, GRANTA-519 cell line (hematological)): 3.3 µM | IC50 (Homo sapiens, HCT-15, 72 h, HCT15 cell line (colon)): > 50 µM | IC50 (Homo sapiens, HCT-116, 72 h, HCT116 cell line (colon)): > 50 µM | IC50 (Homo sapiens, HEK293, 72 h, HEK293 cell line (kidney)): > 50 µM | IC50 (Homo sapiens, HL-60, 72 h, HL-60 cell line (hematological)): > 50 µM | IC50 (Homo sapiens, HT-29, 72 h, HT29 cell line (colon)): 2.8 µM | IC50 (Homo sapiens, HT-1080, 72 h, HT1080 cell line (connective tissue)): > 50 µM | IC50 (Homo sapiens, HeLa, HELA cell line (cervical)): > 50 µM | IC50 (Homo sapiens, HepG2, 72 h, HEPG2 cell line (liver)): 3.4 µM | IC50 (Homo sapiens, IGROV-1, 72 h, IGROV1 cell line (ovary)): > 50 µM | IC50 (Homo sapiens, IMR-90, 72 h, IMR.90 cell line): > 50 µM | IC50 (Homo sapiens, J82, 72 h, J82 cell line (bladder)): 1.32 µM | IC50 (Homo sapiens, JEG-3, 72 h, JEG3 cell line (placenta)): 4.2 µM | IC50 (Homo sapiens, JIMT-1, 72 h, JIMT1 cell line (breast)): > 50 µM | IC50 (Homo sapiens, K562, 72 h, K-562 cell line (hematological)): > 50 µM | IC50 (Homo sapiens, Kasumi 1, 72 h, KASUMI-1 cell line (hematological)): > 50 µM | IC50 (Homo sapiens, L-363, 72 h, L-363 cell line (hematological)): 5.63 µM | IC50 (Homo sapiens, LoVo, LOVO cell line (colon)): 1.95 µM | IC50 (Homo sapiens, MCF7, 72 h, MCF7 cell line (breast)): 1.04 µM | IC50 (Homo sapiens, MDA-MB-231, 72 h, MDAMB231 cell line (breast)): > 50 µM | IC50 (Homo sapiens, MDA-MB-435, 72 h, MDAMB435 cell line (skin)): > 50 µM | IC50 (Homo sapiens, MDA-MB-436, 72 h, MDAMB436 cell line (breast)): 1.43 µM | IC50 (Homo sapiens, MDA-MB-468, 72 h, MDAMB468 cell line (breast)): > 50 µM | IC50 (Homo sapiens, MG-63, 72 h, MG63 cell line (bone)): 4.7 µM | IC50 (Homo sapiens, MHH-ES-1, 72 h, MHHES1 cell line (bone)): > 50 µM | IC50 (Homo sapiens, MIA PaCa-2, 72 h, MIAPACA2 cell line (pancreas)): 6.39 µM | IC50 (Homo sapiens, MINO, MINO cell line (hematological)): 2.3 µM | IC50 (Homo sapiens, MV4-11, 72 h, MV4-11 cell line (hematological)): 0.79 µM | IC50 (Homo sapiens, NCI-H23, 72 h, NCI-H23 cell line (lung)): 4.86 µM | IC50 (Homo sapiens, NCI-H82, 72 h, NCIH82 cell line (lung)): > 50 µM | IC50 (Homo sapiens, NCI-H292, 72 h, NCIH292 cell line (lung)): > 50 µM | IC50 (Homo sapiens, NCI-H460, 72 h, NCIH460 cell line (lung)): 2.29 µM | IC50 (Homo sapiens, OVCAR-3, 72 h, OVCAR3 cell line (ovary)): > 50 µM | IC50 (Homo sapiens, OVCAR-4, 72 h, OVCAR4 cell line (ovary)): > 50 µM | IC50 (Homo sapiens, PANC-1, 72 h, PANC1 cell line (pancreas)): > 50 µM | IC50 (Homo sapiens, PC-3, 72 h, PC3 cell line (prostate)): > 50 µM | IC50 (Homo sapiens, PLC-PRF-5, 72 h, PLCPRF5 cell line (liver)): 3.79 µM | IC50 (Homo sapiens, Panc1005, 72 h, PANC1005 cell line (pancreas)): > 50 µM | IC50 (Homo sapiens, RD, RD cell line (muscle)): > 50 µM | IC50 (Homo sapiens, Ramos, RAMOS cell line (hematological)): > 50 µM | IC50 (Homo sapiens, SAOS-2, 72 h, SAOS2 cell line (bone)): 6.6 µM | IC50 (Homo sapiens, SF-268, 72 h, SF268 cell line (brain)): 3.94 µM | IC50 (Homo sapiens, SF-295, 72 h, SF295 cell line (brain)): 3.65 µM | IC50 (Homo sapiens, SK-BR-3, 72 h, SKBR3 cell line (breast)): 0.22 µM | IC50 (Homo sapiens, SK-HEP1, 72 h, SKHEP1 cell line (liver)): > 50 µM | IC50 (Homo sapiens, SK-LMS-1, 72 h, SKLMS1 cell line (uterus)): 3.55 µM | IC50 (Homo sapiens, SK-MEL-28, 72 h, SKMEL28 cell line (skin)): > 50 µM | IC50 (Homo sapiens, SK-N-AS, SKNAS cell line (brain)): > 50 µM | IC50 (Homo sapiens, SK-N-SH, SKNSH cell line (brain)): > 50 µM | IC50 (Homo sapiens, SK-OV-3, 72 h, SKOV3 cell line (ovary)): 3.18 µM | IC50 (Homo sapiens, SNB-75, 72 h, SNB75 cell line (brain)): > 50 µM | IC50 (Homo sapiens, SU-DHL10, 72 h, SU-DHL-10 cell line (hematological)): > 50 µM | IC50 (Homo sapiens, SU-DHL-6, 72 h, SU-DHL-6 cell line (hematological)): > 50 µM | IC50 (Homo sapiens, SW-620, 72 h, SW620 cell line (colon)): 1.71 µM | IC50 (Homo sapiens, T-24, 72 h, T24 cell line (bladder)): 5.25 µM | IC50 (Homo sapiens, TE-671, 72 h, TE671 cell line (muscle)): > 50 µM | IC50 (Homo sapiens, THP-1, 72 h, THP-1 cell line (hematological)): 5.57 µM | IC50 (Homo sapiens, U2OS, U2OS cell line (bone)): > 50 µM | IC50 (Homo sapiens, U-87 MG, U87MG cell line (brain)): > 50 µM | IC50 (Homo sapiens, UMUC3, 72 h, UMUC3 cell line (bladder)): 7.75 µM | IC50 (Homo sapiens, UO-31, 72 h, UO31 cell line (kidney)): > 50 µM | IC50 (Homo sapiens, WSU-NHL, WSU-NHL cell line (hematological)): 5.66 µM | IC50 (MT-3, 72 h, MT3 cell line (breast)): 3.17 µM | IC50 (NCI-H358M, NCIH358M cell line (lung)): 9.06 µM | IC50 (PBMC, PBMC (hematological)): > 50 µM | IC50 (RD-ES, RDES cell line (bone)): 3.48 µM
